The values below come from patent US12187709B2 (Genentech, Inc., priority 2021, dated 2025).

pIC50, pKd: −log10 of the molar value.

The target in one assay is c-Cbl (Homo sapiens (Human), UniProt P22681). The assay can be described thus: C-Cbl LCK Ub TR-FRET assay (C-cbl Lck HTRF). The format is biochemical. In short, it runs like this:
(§1)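 Signal is read once the detection mix has stood 20 min at ambient temperature. Curves are anchored by DMSO as maximum and by omission of LCK as minimum.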
In general terms: In TR-FRET formats the signal depends on donor and acceptor labels being close together.

In assay [1] the target is Human Cbl-b (residues 40-426) (Homo sapiens (Human), UniProt Q13191). The assay can be described thus: Cbl-b SPR assay. To be noted: for Fold of selectivity: C-cbl SPR Kd vs Cbl-b SPR Kd; for pKd: SPR, 20° C. The assay is classed as binding. In short, it runs like this: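 Binding is measured by surface plasmon resonance against both isoforms, with double referencing and 1:1 kinetic fitting. Dissociation time is tuned to 4-5 half-lives.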

The next assay deals with Cbl-b (Homo sapiens (Human), UniProt Q13191). The assay can be described thus: Cbl-b LCK Ub TR-FRET assay (Cbl-b Lck HTRF). The assay is classed as biochemical. To be noted: for pIC50: Cbl-b LCK Ub TR-FRET; for fold-selectivity (Cbl-b over C-cbl): ratio C-cbl Lck HTRF IC50 / Cbl-b Lck HTRF IC50. In short, it runs like this: as §1
The target in the next assay is c-Cbl (residues 47-435) (Homo sapiens (Human), UniProt P22681). The assay can be described thus: c-Cbl SPR assay. The format is binding. To be noted: 20° C. As to the method:
Affinity of binding to Cbl-b and c-Cbl for compounds described herein was assessed by surface plasmon resonance (SPR) according to the following protocol.
A surface capture range of 1300-1500 RU of protein was used for both isoforms.
For SPR measurements, 6 concentrations with 2 fold serial dilution were measured with blanks flanking each series for double referencing. […] SPR sensorgrams were recorded in multi-cycle kinetics format, with a contact time of 60 seconds and a flow rate of 40 μl/min, the dissociation time was varied between 120-1200 seconds aiming for 4-5 half-lives of the measured interaction.
Kinetic and affinity parameters were extracted from the multicycle kinetics data fitting to a 1:1 binding model using the Biacore™ Incyte evaluation software (Cytiva).
Chaser assay utilize a single cycle kinetics SPR experiment with a contact time of 120 seconds, a flow rate of 50 μl/min and a dissociation time of 450 seconds. Single cycle kinetics titration utilized an initial blank injection and 5 concentrations with 2 fold serial dilution with a maximum concentration of 500 nM, blanked to a preceding 6 point blank single cycle kinetics injection for double referencing.
The kd is measured independently by determining the percentage unoccupied compound binding site over time by measuring the binding of a chaser compound measured by SPR.
Chaser binding was measured by a multicycle kinetics SPR experiment using a contact time of 20 seconds, a flow rate of 30 μl/min, and a dissociation time of 120 seconds. […] The % compound bound at a given time was determined by comparison to a single injection of chaser preceding the single cycle kinetics titration defined below. % Compound Bound=(1−(RUT/RUT0))*100
The % compound bound is plotted against time in seconds and fit to a single exponential, where the exponent represents the kd of the compound-protein complex. The single cycle kinetics experiment of the compound is then fit with a fixed kd determined using the chaser.

Sequence of Cbl-b (Q13191 40-426): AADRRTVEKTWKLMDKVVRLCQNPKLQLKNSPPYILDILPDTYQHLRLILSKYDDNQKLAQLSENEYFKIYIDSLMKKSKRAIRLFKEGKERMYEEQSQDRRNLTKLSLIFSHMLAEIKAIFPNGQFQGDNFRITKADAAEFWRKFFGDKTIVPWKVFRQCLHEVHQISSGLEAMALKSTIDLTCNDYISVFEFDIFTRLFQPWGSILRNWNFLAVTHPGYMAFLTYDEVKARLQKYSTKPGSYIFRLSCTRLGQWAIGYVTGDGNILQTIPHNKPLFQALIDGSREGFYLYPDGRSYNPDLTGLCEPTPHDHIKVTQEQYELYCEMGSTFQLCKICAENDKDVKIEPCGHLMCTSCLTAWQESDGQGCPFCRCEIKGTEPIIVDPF
Sequence of Human Cbl-b (residues 40-426) (Q13191 40-426): as above
Sequence of c-Cbl (residues 47-435) (P22681 47-435): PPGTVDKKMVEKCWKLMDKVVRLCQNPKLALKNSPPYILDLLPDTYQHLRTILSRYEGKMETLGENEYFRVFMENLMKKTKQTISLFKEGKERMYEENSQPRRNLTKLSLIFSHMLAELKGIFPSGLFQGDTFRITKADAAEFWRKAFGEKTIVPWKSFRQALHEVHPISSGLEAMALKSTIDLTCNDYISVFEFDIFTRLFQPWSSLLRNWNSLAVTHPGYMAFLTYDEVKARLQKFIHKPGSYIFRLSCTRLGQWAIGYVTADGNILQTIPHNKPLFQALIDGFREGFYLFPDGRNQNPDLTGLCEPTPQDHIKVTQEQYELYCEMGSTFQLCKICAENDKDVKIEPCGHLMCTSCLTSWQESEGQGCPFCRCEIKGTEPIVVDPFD
Sequence of c-Cbl (P22681 47-435): as above

On to `Cn1cnnc1[C@@](O)(c1cccc(N2Cc3c(cc(CNC4(C)CCC4)cc3C(F)(F)F)C2=O)c1)C1COC1` (single isomer, unassigned) [Compound 143], for which the pIC50 (usually the negative decadic logarithm of the IC50, by convention in mol/L) against c-Cbl was 6.72. In assay [1], the Fold of selectivity worked out at 4.3× and the pKd – broadly, the Kd on a negative log10 scale, so that one unit is a factor of ten – was 7.24. Also, on Cbl-b, the pIC50 is 7.21 and the “fold-selectivity (Cbl-b over C-cbl)” value amounted to 3.1x. At c-Cbl (residues 47-435), this compound showed a pKd of 6.66.
Consider `Cn1cnnc1[C@H](c1cccc(N2Cc3c(cc(CNC4(C)CCC4)cc3C(F)(F)F)C2=O)c1)C1(O)COC1` (single isomer, unassigned) [Compound 147], for which the pIC50 on c-Cbl is 7.54. In assay [1], this compound gave a Fold of selectivity of 9.6× and a pKd of 8.44. For the same compound, at Cbl-b, the pIC50 was 7.89 and the “fold-selectivity (Cbl-b over C-cbl)” value was 2.2x. In addition, the pKd at c-Cbl (residues 47-435) was 7.38.
In the case of `Cn1cnnc1C1(c2cccc(N3Cc4c(cc([C@H](CO)NC5(C)CCC5)cc4C(F)(F)F)C3=O)c2)CCC1` (single isomer, unassigned) [Compound 148], the pIC50 against c-Cbl was 7.36. In assay [1], this compound had a Fold of selectivity of 6.7× and a pKd of 8.03. Besides, on Cbl-b, the pIC50 is 8.00 and the “fold-selectivity (Cbl-b over C-cbl)” value turned out to be 4.4x. Moreover, the pKd on c-Cbl (residues 47-435) was 7.20.
As to `Cn1cnnc1C1(c2cccc(N3Cc4c(cc([C@@H](CO)NC5(C)CCC5)cc4C(F)(F)F)C3=O)c2)CCC1` (single isomer, unassigned) [Compound 149], the pIC50 against c-Cbl is 8.39; against Cbl-b it was 8.31. For the same compound, the Fold of selectivity in assay [1] is reported as 4.7×. In addition, the pKd in assay [1] is 9.52; on c-Cbl (residues 47-435), 8.85. Further, the “fold-selectivity (Cbl-b over C-cbl)” value on Cbl-b was determined as 0.82x.
Consider `Cn1cnnc1C(F)(c1cccc(N2Cc3c(cc(CNC4(C)CCC4)cc3C(F)(F)F)C2=O)c1)C1COC1` (single isomer, unassigned) [Compound 150], for which the pIC50 against c-Cbl was 7.89. Besides, in assay [1], the Fold of selectivity is recorded as 8.5× and the pKd was 8.54. Moreover, at Cbl-b, the pIC50 was 8.04 and the “fold-selectivity (Cbl-b over C-cbl)” value was 1.4x. In addition, at c-Cbl (residues 47-435), the pKd is 7.55.
As for `Cn1cnnc1[C@@H](c1cc(F)cc(N2Cc3c(cc(CNC4(C)CCC4)cc3C(F)(F)F)C2=O)c1)C1COC1` (single isomer, unassigned) [Compound 152], the pIC50 against c-Cbl was 7.28; on Cbl-b it was 7.74. This compound registered a Fold of selectivity in assay [1] of 6.5×. For the same compound, the pKd in assay [1] was 8.06; at c-Cbl (residues 47-435) it was 7.23. For the same compound, at Cbl-b, the “fold-selectivity (Cbl-b over C-cbl)” value was found to be 2.9x.
In the case of `Cn1cnnc1[C@]1(c2cccc(N3Cc4c(cc(CNC5(C)CCC5)cc4C(F)(F)F)C3=O)c2)C[C@@H]([S@+](C)[O-])C1` (single isomer, unassigned) [Compound 160], the pIC50 against c-Cbl was 5.28. In assay [1], this compound gave a Fold of selectivity of 0.76× and a negative-log Kd (pKd) of 5.89. Also, on Cbl-b, the pIC50 is 5.89 and the “fold-selectivity (Cbl-b over C-cbl)” value turned out to be 3.9x. For the same compound, on c-Cbl (residues 47-435), the pKd was 6.00.
As to `Cn1cnnc1[C@]1(c2cccc(N3Cc4c(cc(CNC5(C)CCC5)cc4C(F)(F)F)C3=O)c2)C[C@H]([S@@+](C)[O-])C1` (single isomer, unassigned) [Compound 161], on c-Cbl, the pIC50 was 5.37. Besides, in assay [1], the Fold of selectivity is on record as 6.6× and the pKd was 6.34. For the same compound, at Cbl-b, the pIC50 was 6.22 and the “fold-selectivity (Cbl-b over C-cbl)” value amounted to 7.2x. For the same compound, the pKd at c-Cbl (residues 47-435) was 5.52.
With `Cn1cnnc1[C@@H](c1cccc(N2Cc3c(cc(CNC4(C)CCC4)cc3C(F)(F)F)C2=O)c1)C1COC1` (single isomer, unassigned) [Compound 164], on c-Cbl, the pIC50 was 7.74. In addition, in assay [1], the Fold of selectivity worked out at 7.0× and the pKd was 8.72. Further, at Cbl-b, the pIC50 is 8.05 and the “fold-selectivity (Cbl-b over C-cbl)” value is 2.0x. In addition, on c-Cbl (residues 47-435), the pKd was 7.85.
